Measurements from ChEMBL document CHEMBL1141099, “Discovery of N-(2,6-dimethylphenyl)-substituted semicarbazones as anticonvulsants: hybrid pharmacophore-based design” (2005).

Key:
[1] = tested on: Mus musculus; assay: Post treatment activity score for CNS study using a actophotometer at a dose of 100 mg/Kg after 1 hr when given i.p., in mice (No. of animals 6); Control (24h before) 224
[2] = tested on: Rattus norvegicus; assay: Number of rats protected at a dose of 30 mg/Kg when given oral at 0.5 hr upon maximal electroshock seizure; Total number of rats = 4; assay type: functional
[3] = tested on: Mus musculus; assay: Post treatment immobility time for CNS study using Porsolt's swimpool test at a dose of 100 mg/Kg after 1 hr when given i.p., in mice (No. of animals 6); Control (24h before) 176
[4] = tested on: Mus musculus; assay: Minimum dose required for anticonvulsant activity when given i.p., at 4 hr in mice upon maximal electroshock seizure; assay type: functional
[5] = tested on: Rattus norvegicus; assay: Number of rats protected at a dose of 30 mg/Kg when given oral at 2 hr upon maximal electroshock seizure; Total number of rats = 4; assay type: functional
[6] = tested on: Mus musculus; assay: Minimum dose required for anticonvulsant activity when given i.p., at 0.5 hr in mice upon subcutaneous strychnine seizure; assay type: functional
[7] = tested on: Rattus norvegicus; assay: Enzymatic activity to assess the increase in level of SGPT at a dose of 30 mg/Kg for 14 days when given p.o., in 6 rats; Control 45.0; assay type: functional
[8] = tested on: Rattus norvegicus; assay: Number of rats protected at a dose of 30 mg/Kg when given oral at 1 hr upon maximal electroshock seizure; Total number of rats = 4; assay type: functional
[9] = tested on: Rattus norvegicus; assay: Number of rats protected at a dose of 30 mg/Kg when given oral at 4 hr upon maximal electroshock seizure; Total number of rats = 4; assay type: functional
[10] = tested on: Rattus norvegicus; assay: Toxic dose observed for anticonvulsant activity when given orally at 4 h in rat upon neurotoxicity seizure; assay type: functional; details: po
[11] = tested on: Rattus norvegicus; assay: Number of rats protected at a dose of 30 mg/Kg when given oral at 0.25 hr upon maximal electroshock seizure; Total number of rats = 4; assay type: functional
[12] = tested on: Mus musculus; assay: Mean sleeping time evaluated for CNS study using the pentobarbital-induced narcosis model at a dose of 100 mg/Kg when given i.p., in mice (No. of animals 6)
[13] = species: Rattus norvegicus; assay: Protective index between effective dose and toxic dose in rat; assay type: functional
[14] = tested on: Mus musculus; assay: Minimum dose required for anticonvulsant activity when given i.p., at 0.5 hr in mice upon maximal electroshock seizure; assay type: functional
[15] = tested on: Mus musculus; assay: Post treatment activity score for CNS study using a actophotometer at a dose of 100 mg/Kg after 0.5 hr when given i.p., in mice (No. of animals 6); Control (24h before) 224
[16] = tested on: Mus musculus; assay: Minimum dose required for anticonvulsant activity when given i.p., at 0.5 hr in mice upon subcutaneous pentylenetetrazole seizure; assay type: functional
[17] = tested on: Rattus norvegicus; assay: Effective dose required for anticonvulsant activity when given orally at 4 h in rat upon maximal electroshock seizure; assay type: functional; details: po
[18] = tested on: Rattus norvegicus; assay: Enzymatic activity to assess the increase in level of SGOT at a dose of 30 mg/Kg for 14 days when given p.o., in 6 rats; Control 73.1; assay type: functional
[19] = tested on: Mus musculus; assay: Minimum dose required for anticonvulsant activity when given i.p., at 2 hr in mice upon subcutaneous strychnine seizure; assay type: functional
[20] = tested on: Mus musculus; assay: Post treatment immobility time for CNS study using Porsolt's swimpool test at a dose of 100 mg/Kg after 1 hr when given i.p., in mice (No. of animals 6); Control (24h before) 159
[21] = tested on: Mus musculus; assay: Minimum dose required for anticonvulsant activity when given i.p., at 0.5 hr in mice upon neurotoxicity seizure using rotarod test; assay type: functional
[22] = tested on: Mus musculus; assay: Post treatment activity score for CNS study using a actophotometer at a dose of 100 mg/Kg after 0.5 hr when given i.p., in mice (No. of animals 6); Control (24h before) 214
[23] = tested on: Rattus norvegicus; assay: Toxic dose observed for anticonvulsant activity when given orally at 2 hr in rat upon neurotoxicity seizure; assay type: functional; details: po
[24] = tested on: Rattus norvegicus; assay: Effective dose required for anticonvulsant activity when given orally at 2 h in rat upon maximal electroshock seizure; assay type: functional; details: po
[25] = tested on: Mus musculus; assay: Minimum dose required for anticonvulsant activity when given i.p., in mice upon neurotoxicity seizure using rotarod test
[26] = tested on: Mus musculus; assay: Post treatment activity score for CNS study using a actophotometer at a dose of 100 mg/Kg after 1 h when given i.p., in mice (No. of animals 6); Control (24h before) 214
[27] = tested on: Mus musculus; assay: Post treatment activity score for CNS study using a actophotometer at a dose of 100 mg/Kg after 0.5 hr when given i.p., in mice (No. of animals 6); Control (24h before) 270
[28] = tested on: Mus musculus; assay: Post treatment activity score for CNS study using a actophotometer at a dose of 100 mg/Kg after 1 hr when given i.p., in mice (No. of animals 6); Control (24h before) 270
[29] = tested on: Mus musculus; assay: Post treatment immobility time for CNS study using Porsolt's swimpool test at a dose of 100 mg/Kg after 1 hr when given i.p., in mice (No. of animals 6); Control (24h before) 184
[30] = tested on: Mus musculus; assay: Post treatment activity score for CNS study using a actophotometer at a dose of 100 mg/Kg after 0.5 hr when given i.p., in mice (No. of animals 6); Control (24h before) 258
[31] = tested on: Mus musculus; assay: Post treatment activity score for CNS study using a actophotometer at a dose of 100 mg/Kg after 1 hr when given i.p., in mice (No. of animals 6); Control (24h before) 258
[32] = tested on: Mus musculus; assay: Post treatment activity score for CNS study using a actophotometer at a dose of 100 mg/Kg after 1 hr when given i.p., in mice (No. of animals 6); Control (24h before) 280
[33] = tested on: Mus musculus; assay: Post treatment activity score for CNS study using a actophotometer at a dose of 100 mg/Kg after 0.5 hr when given i.p., in mice (No. of animals 6); Control (24h before) 280
[34] = species: Rattus norvegicus; assay: Ex vitro percentage inhibition activity against GABA-T enzyme at a concentration of 1.25 uM after 4.5 h; assay type: functional
[35] = species: Rattus norvegicus; assay: Ex vitro percentage inhibition activity against GABA-T enzyme at a concentration of 1.25 uM after 3 h; assay type: functional
[36] = tested on: Rattus norvegicus; assay: Effect on GABA level in rat whole brain concentration after 2 hr post-treatment at a dose of 100 mg/Kg when given i.p.; Control 48.4; assay type: functional
[37] = tested on: Rattus norvegicus; assay: Effect on GABA level in rat whole brain concentration after 7 days post-treatment at a dose of 30 mg/Kg when given orally; Control 50.5; assay type: functional
[38] = tested on: Rattus norvegicus; assay: Effective dose required for anticonvulsant activity when given i.p., at 0.25 hr in rat upon maximal electroshock seizure; assay type: functional; details: ip
[39] = tested on: Mus musculus; assay: Post treatment activity score for CNS study using a actophotometer at a dose of 100 mg/Kg after 1 hr when given i.p., in mice (No. of animals 6); Control (24h before) 260
[40] = tested on: Rattus norvegicus; assay: Toxic dose observed for anticonvulsant activity when given i.p., at 0.25 hr in rat upon neurotoxicity seizure; assay type: functional; details: ip
[41] = molecular target: 4-aminobutyrate aminotransferase, mitochondrial (Rattus norvegicus) (UniProt P50554); assay: In vitro percentage inhibition activity against GABA-T enzyme at a concentration of 2.5 uM after 3 h
4-aminobutyrate aminotransferase, mitochondrial (Rattus norvegicus), sequence (P50554 28-500 limits assumed): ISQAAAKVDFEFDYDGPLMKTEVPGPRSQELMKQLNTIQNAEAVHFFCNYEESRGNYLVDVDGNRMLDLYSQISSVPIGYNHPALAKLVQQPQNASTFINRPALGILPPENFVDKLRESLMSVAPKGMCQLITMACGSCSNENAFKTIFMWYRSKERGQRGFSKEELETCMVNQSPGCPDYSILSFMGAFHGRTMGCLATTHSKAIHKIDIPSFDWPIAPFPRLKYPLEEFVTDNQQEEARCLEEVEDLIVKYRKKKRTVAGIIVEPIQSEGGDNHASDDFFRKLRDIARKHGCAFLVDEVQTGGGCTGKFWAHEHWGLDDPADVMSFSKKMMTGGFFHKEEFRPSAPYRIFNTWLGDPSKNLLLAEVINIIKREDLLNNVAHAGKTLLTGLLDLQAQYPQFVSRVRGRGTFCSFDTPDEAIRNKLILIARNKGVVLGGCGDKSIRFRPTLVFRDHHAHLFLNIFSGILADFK

[42] = tested on: Mus musculus; assay: Post treatment immobility time for CNS study using Porsolt's swimpool test at a dose of 100 mg/Kg after 1 h when given i.p., in mice (No. of animals 6); Control (24h before) 164
[43] = tested on: Mus musculus; assay: Post treatment activity score for CNS study using a actophotometer at a dose of 100 mg/Kg after 0.5 hr when given i.p., in mice (No. of animals 6); Control (24h before) 260
[44] = molecular target: 4-aminobutyrate aminotransferase, mitochondrial (Rattus norvegicus) (UniProt P50554); assay: In vitro percentage inhibition activity against GABA-T enzyme at a concentration of 2.5 uM after 6 h
[45] = molecular target: 4-aminobutyrate aminotransferase, mitochondrial (Rattus norvegicus) (UniProt P50554); assay: In vitro percentage inhibition activity against GABA-T enzyme at a concentration of 2.5 uM after 4.5 h
[46] = species: Rattus norvegicus; assay: Ex vitro percentage inhibition activity against GABA-T enzyme at a concentration of 1.25 uM after 6 h; assay type: functional

SMILES	Activity [2]	MES [4] [mg/kg]	Activity [5]	STY seizure [6] [mg/kg]	SGPT activity [7] [units/mL]	Activity [8]	Activity [9]	TD50 [10] [mg/kg]	Activity [11]	Time [12] [min]	PI [13]	MES [14] [mg/kg]	PTZ seizure [16] [mg/kg]	ED50 [17] [mg/kg]	SGOT activity [18] [units/mL]	STY seizure [19] [mg/kg]	NT [21] [mg/kg]	NT [25] [mg/kg]	also measured
CC/C(C)=N\NC(=O)Nc1c(C)cccc1C	4	300	3	30	49.3	4	3	> 500	1	61	>17.2	100	300	29	79.6	100	–	–	Activity [1]: 195; Activity [3]: 199; Activity [15]: 188
CC(=O)C/C(C)=N\NC(=O)Nc1c(C)cccc1C	4	300	4	100	–	2	4	–	2	–	>10.8	100	300	–	–	300	300	300	Activity [20]: 228; Activity [22]: 127; TD50 [23]: > 216 mg/kg; ED50 [24]: 19.8 mg/kg; Activity [26]: 144
Cc1cccc(C)c1NC(=O)/N=N/c1c(O)[nH]c2ccccc12	2	300	1	30	–	1	3	–	2	–	–	100	–	–	–	100	300	–	Activity [27]: 224; Activity [28]: 217
C/C(=N\NC(=O)Nc1c(C)cccc1C)c1ccc(N)cc1	3	300	2	30	44.6	4	4	> 464	1	–	>15.9	100	300	29.1	71.3	100	300	300	Activity [29]: 204; Activity [30]: 202; Activity [31]: 187
Cc1cccc(C)c1NC(=O)/N=N/c1c(O)[nH]c2ccc(Cl)cc12	1	300	1	30	–	0	1	–	1	–	–	100	300	–	–	100	300	–	Activity [32]: 267; Activity [33]: 263
C/C(=N\NC(=O)Nc1c(C)cccc1C)c1ccc(O)cc1	2	300	3	30	–	4	4	–	1	108	>1.6	100	300	–	–	100	–	–	Inhibition [34]: 25%; Inhibition [35]: 0%; Activity [36]: 81.1 ug/100mg of tissue; Activity [37]: 93.6 ug/100mg of tissue; ED50 [38]: 41.6 mg/kg; Activity [39]: 198; TD50 [40]: > 68 mg/kg; inhibition [41]: 0%; Activity [42]: 198; Activity [43]: 205; inhibition [44]: 55%; inhibition [45]: 0%; Inhibition [46]: 60%
